Drawing on US20240158418A1 (C4 Therapeutics, Inc., priority 2021, published 2024), this text covers DC50 for eleven molecules.

Some results are limits rather than exact numbers.

In one assay the target is T1, EGFR L858R-T790M (Homo sapiens, UniProt P00533, L858R/T790M).
T1 construct: NCI-H1975 (harboring EGFR heterozygous L858R-T790M mutations); host or cells: NCI-H1975
T1 sequence (P00533 25-1210 T790M/L858R): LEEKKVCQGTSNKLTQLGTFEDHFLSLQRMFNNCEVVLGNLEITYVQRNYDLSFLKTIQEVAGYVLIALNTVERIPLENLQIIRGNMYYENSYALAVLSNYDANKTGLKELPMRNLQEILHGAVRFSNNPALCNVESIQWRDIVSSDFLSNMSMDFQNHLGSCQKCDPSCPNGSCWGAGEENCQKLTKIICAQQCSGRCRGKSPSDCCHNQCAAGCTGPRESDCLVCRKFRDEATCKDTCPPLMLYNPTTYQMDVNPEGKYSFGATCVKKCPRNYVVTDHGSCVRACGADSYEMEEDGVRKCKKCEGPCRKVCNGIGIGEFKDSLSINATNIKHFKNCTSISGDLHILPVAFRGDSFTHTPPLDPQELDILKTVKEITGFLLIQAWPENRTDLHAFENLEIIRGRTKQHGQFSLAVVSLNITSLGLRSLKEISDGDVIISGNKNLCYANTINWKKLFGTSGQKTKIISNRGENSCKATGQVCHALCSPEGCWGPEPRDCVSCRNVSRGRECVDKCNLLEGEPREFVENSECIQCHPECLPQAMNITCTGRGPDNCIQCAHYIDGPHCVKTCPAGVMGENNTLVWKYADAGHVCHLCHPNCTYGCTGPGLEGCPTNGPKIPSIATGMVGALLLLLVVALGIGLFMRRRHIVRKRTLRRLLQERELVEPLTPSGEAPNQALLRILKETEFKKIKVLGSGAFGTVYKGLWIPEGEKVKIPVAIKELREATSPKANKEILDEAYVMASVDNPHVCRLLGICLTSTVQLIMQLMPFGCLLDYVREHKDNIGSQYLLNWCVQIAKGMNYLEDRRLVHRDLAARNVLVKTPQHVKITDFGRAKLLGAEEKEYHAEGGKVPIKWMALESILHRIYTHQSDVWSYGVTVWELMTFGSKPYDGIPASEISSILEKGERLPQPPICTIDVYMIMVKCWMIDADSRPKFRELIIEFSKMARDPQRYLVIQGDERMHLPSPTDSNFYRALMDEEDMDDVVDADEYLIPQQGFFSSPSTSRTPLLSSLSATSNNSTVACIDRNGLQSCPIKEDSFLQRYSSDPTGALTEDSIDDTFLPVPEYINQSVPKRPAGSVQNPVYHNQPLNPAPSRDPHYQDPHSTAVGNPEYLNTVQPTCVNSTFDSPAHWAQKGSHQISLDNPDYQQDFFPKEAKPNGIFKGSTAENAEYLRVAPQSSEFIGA
Put plainly: EGFR degradation, Total EGFR (L858R-specific) HTRF, NCI-H1975. The class given is cell-based. The conditions noted are these: Table 9A; NCI-H1975 cells, 6 hours, Total EGFR HTRF; read-out: H1975 EGFR DC50. Put shortly: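 HTRF read-outs: pY1068 phospho-EGFR for IC50; total EGFR (pan-EGFR in A431, L858R-specific in mutant lines) for DC50. Compounds were titrated 11 points, half-log, from 10 μM in duplicate onto cells in 10% FBS RPMI, incubated 6 h at 37°C.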
On the technique in general: In TR-FRET formats the signal depends on donor and acceptor labels being close together.
One may read the DC50 as the concentration giving 50% degradation. For the molecule `O=C1CCC(Nc2ccc(N3CCC(O)(CC(=O)N4CCN(c5ccc(-c6cc(F)c7c(c6)C(=O)N(C(C(=O)Nc6nccs6)c6ncn8c6CCC8)C7)cc5)CC4)CC3)c(C(F)(F)F)c2)C(=O)N1` (centres unmarked) [Compound 18, 2-(6,7-dihydro-5H-pyrrolo[1,2-c]imidazol-1-yl)-2-(6-(4-(4-(2-(1-(4-((2,6-dioxopiperidin-3-yl)amino)-2-(trifluoromethyl)phenyl)-4-hydroxypiperidin-4-yl)acetyl)piperazin-1-yl)phenyl)-4-fluoro-1-oxoisoindolin-2-yl)-N-(thiazol-2-yl)acetamide], the DC50 was below 50 nM.
For the molecule `O=C1CCC(Nc2ccc(C3CCN(CC(=O)N4CCN(c5ccc(-c6cc(Cl)c7cn(C(C(=O)Nc8nccs8)c8ncn9c8CCC9)nc7c6Cl)cc5)CC4)CC3)cc2)C(=O)N1` (racemic) [Compound 61, (2RS)-2-[4,7-Dichloro-6-[4-[4-[2-[4-[4-[[(3RS)-2,6-dioxo-3-piperidyl]amino]phenyl]-1-piperidyl]acetyl]piperazin-1-yl]phenyl]indazol-2-yl]-2-(6,7-dihydro-5H-pyrrolo[1,2-c]imidazol-1-yl)-N-thiazol-2-yl-acetamide], the DC50 was 50 to 150 nM.
Same read-out and setting: next, `Cn1nc(N2CCC(=O)NC2=O)c2ccc(C3CCN(CC(=O)N4CC5(C4)CN(c4ccc(-c6cc(F)c7c(c6)C(=O)N(C(C(=O)Nc6ccccn6)c6ncn8c6CCC8)C7)cc4)C5)CC3)cc21` (centres unmarked) [Compound 54, 2-(6,7-dihydro-5H-pyrrolo[1,2-c]imidazol-1-yl)-2-[6-[4-[2-[2-[4-[3-(2,4-dioxohexahydropyrimidin-1-yl)-1-methyl-indazol-6-yl]-1-piperidyl]acetyl]-2,6-diazaspiro[3.3]heptan-6-yl]phenyl]-4-fluoro-1-oxo-isoindolin-2-yl]-N-(2-pyridyl)acetamide]: below 50 nM.

Staying with this assay, now noted: Table 9B; NCI-H1975 cells, 6 hours, Total EGFR HTRF; read-out: H1975 EGFR DC50.
Turning to `Cn1nc(N2CCC(=O)NC2=O)c2ccc(C3CCN(C(=O)C4CC5(C4)CN(c4ccc(-c6cc(F)c7c(c6)C(=O)N(C(C(=O)Nc6nccs6)c6ncn8c6CCC8)C7)cc4)C5)CC3(F)F)cc21` (centres unmarked) [Compound 155, 2-(6,7-dihydro-5H-pyrrolo[1,2-c]imidazol-1-yl)-2-[6-[4-[6-[4-[3-(2,4-dioxohexahydropyrimidin-1-yl)-1-methyl-indazol-6-yl]-3,3-difluoro-piperidine-1-carbonyl]-2-azaspiro[3.3]heptan-2-yl]phenyl]-4-fluoro-1-oxo-isoindolin-2-yl]-N-thiazol-2-yl-acetamide], the DC50 is below 50 nM.
On to `Cn1nc(N2CCC(=O)NC2=O)c2ccc(C3CCN(CC(=O)N4CCN(c5ccc(-c6cc(F)c7cn(C(C(=O)Nc8nccs8)c8ncn9c8CCC9)nc7c6)cn5)CC4)CC3(F)F)cc21` (centres unmarked) [Compound 72, 2-(6,7-dihydro-5H-pyrrolo[1,2-c]imidazol-1-yl)-2-(6-(6-(4-(2-(4-(3-(2,4-dioxotetrahydropyrimidin-1(2H)-yl)-1-methyl-1H-indazol-6-yl)-3,3-difluoropiperidin-1-yl)acetyl)piperazin-1-yl)pyridin-3-yl)-4-fluoro-2H-indazol-2-yl)-N-(thiazol-2-yl)acetamide], for which the DC50 was below 50 nM.
On the same count and under the same terms, next, `C[C@@H]1CC(O)(CC(=O)N2CC3(C2)CN(c2ccc(-c4cc(F)c5c(c4)C(=O)N(C(C(=O)Nc4nccs4)c4ncn6c4CCC6)C5)cc2)C3)C[C@H](C)N1c1ccc(NC2CCC(=O)NC2=O)cc1F` (some centres unmarked) [Compound 161, 2-(6,7-dihydro-5H-pyrrolo[1,2-c]imidazol-1-yl)-2-[6-[4-[2-[2-[(2s,6r)-1-[4-[(2,6-dioxo-3-piperidyl)amino]-2-fluoro-phenyl]-4-hydroxy-2,6-dimethyl-4-piperidyl]acetyl]-2,6-diazaspiro[3.3]heptan-6-yl]phenyl]-4-fluoro-1-oxo-isoindolin-2-yl]-N-thiazol-2-yl-acetamide]: below 50 nM; `O=C1CCN(c2ccc(N3CCC(O)(CC(=O)N4CC5(C4)CN(c4ccc(-c6cc(F)c7c(c6)C(=O)N(C(C(=O)Nc6nccs6)c6ncn8c6CCC8)C7)cc4)C5)CC3)c(C(F)(F)F)c2)C(=O)N1` (centres unmarked) [Compound 168, 2-(6,7-dihydro-5H-pyrrolo[1,2-c]imidazol-1-yl)-2-[6-[4-[2-[2-[1-[4-(2,4-dioxohexahydropyrimidin-1-yl)-2-(trifluoromethyl)phenyl]-4-hydroxy-4-piperidyl]acetyl]-2,6-diazaspiro[3.3]heptan-6-yl]phenyl]-4-fluoro-1-oxo-isoindolin-2-yl]-N-thiazol-2-yl-acetamide]: 50 to 150 nM; `O=C1CC[C@H](Nc2ccc(C3CCN(C(=O)CC4CC5(C4)CN(c4ccc(-c6cc(F)c7c(c6)C(=O)N(C(C(=O)Nc6nccs6)c6ncn8c6CCC8)C7)cc4)C5)CC3)c(F)c2)C(=O)N1` (stereo partly drawn) [Compound 100, 2-(6,7-dihydro-5H-pyrrolo[1,2-c]imidazol-1-yl)-2-(6-(4-(6-(2-(4-(4-(((S)-2,6-dioxopiperidin-3-yl)amino)-2-fluorophenyl)piperidin-1-yl)-2-oxoethyl)-2-azaspiro[3.3]heptan-2-yl)phenyl)-4-fluoro-1-oxoisoindolin-2-yl)-N-(thiazol-2-yl)acetamide]: below 50 nM.
The same measure, in the same setting: to `O=C1CCC(Nc2cnc(N3CCC(O)(CC(=O)N4CC5(C4)CN(c4ccc(-c6cc(F)c7c(c6)C(=O)N(C(C(=O)Nc6nccs6)c6ncn8c6CCC8)C7)cc4)C5)CC3)c(F)c2)C(=O)N1` (centres unmarked) [Compound 90, 2-(6,7-dihydro-5H-pyrrolo[1,2-c]imidazol-1-yl)-2-(6-(4-(6-(2-(1-(5-((2,6-dioxopiperidin-3-yl)amino)-3-fluoropyridin-2-yl)-4-hydroxypiperidin-4-yl)acetyl)-2,6-diazaspiro[3.3]heptan-2-yl)phenyl)-4-fluoro-1-oxoisoindolin-2-yl)-N-(thiazol-2-yl)acetamide] belongs below 50 nM.
As to `O=C1CC[C@H](Nc2ccc(C3CCN(CC(=O)N4CC5(C4)CN(c4ccc(-c6cc(F)c7c(c6)C(=O)N(C(C(=O)Nc6nccs6)c6ncn8c6CCC8)C7)cn4)C5)CC3)c(F)c2)C(=O)N1` (stereo partly drawn) [Compound 95, 2-(6,7-dihydro-5H-pyrrolo[1,2-c]imidazol-1-yl)-2-(6-(6-(6-(2-(4-(4-(((S)-2,6-dioxopiperidin-3-yl)amino)-2-fluorophenyl)piperidin-1-yl)acetyl)-2,6-diazaspiro[3.3]heptan-2-yl)pyridin-3-yl)-4-fluoro-1-oxoisoindolin-2-yl)-N-(thiazol-2-yl)acetamide], the DC50 was below 50 nM.
Take `Cn1nc(N2CCC(=O)NC2=O)c2ccc([C@H]3CCN(C(=O)CN4CC5(CCN(c6ccc(-c7cc(F)c8c(c7)C(=O)N(C(C(=O)Nc7nccs7)c7ncn9c7CCC9)C8)cc6)CC5)C4)CC3(F)F)cc21` (stereo partly drawn) [Compound 143, 2-(6,7-dihydro-5H-pyrrolo[1,2-c]imidazol-1-yl)-2-[6-[4-[2-[2-[(4R)-4-[3-(2,4-dioxohexahydropyrimidin-1-yl)-1-methyl-indazol-6-yl]-3,3-difluoro-1-piperidyl]-2-oxo-ethyl]-2,7-diazaspiro[3.5]nonan-7-yl]phenyl]-4-fluoro-1-oxo-isoindolin-2-yl]-N-thiazol-2-yl-acetamide]: the DC50 is 50 to 150 nM.
